Molecular target: T1, SMYD3 (Homo sapiens, UniProt Q9H7B4)
T1 construct: Expressed full-length human His-tagged SMYD3 protein was purified from cell paste; His6 (cleaved yes); SUMO (with TEV site) (cleaved yes); made in house; host or cells: E. coli BL21 codonplus RIL
T1 sequence (Q9H7B4 1-428): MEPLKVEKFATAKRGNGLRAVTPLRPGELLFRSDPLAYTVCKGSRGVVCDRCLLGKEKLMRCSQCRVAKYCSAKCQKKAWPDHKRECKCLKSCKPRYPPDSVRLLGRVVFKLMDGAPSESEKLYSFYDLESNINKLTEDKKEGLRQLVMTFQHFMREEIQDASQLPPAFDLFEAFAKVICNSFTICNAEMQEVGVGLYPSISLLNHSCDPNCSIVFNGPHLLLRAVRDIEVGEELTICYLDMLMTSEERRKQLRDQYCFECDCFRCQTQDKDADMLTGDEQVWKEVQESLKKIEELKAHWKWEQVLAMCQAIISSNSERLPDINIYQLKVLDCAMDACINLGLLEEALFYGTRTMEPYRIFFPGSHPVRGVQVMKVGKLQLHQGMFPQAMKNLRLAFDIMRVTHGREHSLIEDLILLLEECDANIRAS
Assay: SMYD3 Biochemical Assay (SMYD3 enzyme assay on MEKK2 protein substrate, 3H-SAM, scintillation proximity assay)
Settings: read-out: SMYD3 Biochem IC50 (uM)*
Text: S-adenosylmethionine (SAM), S-adenosylhomocysteine (SAH), Tris, Tween20, dimethylsulfoxide (DMSO), bovine skin gelatin (BSG), and Tris(2-carboxyethyl)phosphine hydrochloride solution (TCEP) were purchased from Sigma-Aldrich at the highest level of purity possible. ^3H-SAM was purchase from American Radiolabeled Chemicals with a specific activity of 80 Ci/mmol.
This protein was expressed in High Five insect cells and purified to >85% purity. Protein identity was confirmed by MS/MS analysis after proteolytic digestion. The protein sequence used was:
Full-length human SMYD3 isoform 1 (BAB86333) was inserted into a modified pET21b plasmid containing a His6 tag and TEV and SUMO cleavage sites.
Transformed cells were grown and selected on LB agar with 100 μg/mL ampicillin and 17 μg/mL chloramphenicol at 37° C. overnight. A single clone was used to inoculate 200 mL of LB medium with 100 μg/mL ampicillin and 17 μg/mL chloramphenicol and incubated at 37° C. on an orbital shaker at 180 rpm. […] Once OD600 reached about 0.4, IPTG was added to a final concentration of 0.1 mM and the cells were grown overnight at 15° C. and 160 rpm. Cells were harvested by centrifugation at 8000 rpm, for 4 minutes at 4° C. and stored at −80° C. for purification. […]

## NCCC(=O)N(CCN)[C@H]1CC[C@H](NC(=O)c2cc(C3CC3)on2)CC1 [compound 35, N-((1r,4r)-4-(3-amino-N-(2-aminoethyl)pro-panamido)cyclo-hexyl)-5-cyclo-propylisoxazole-3-carboxamide]
  IC50: 0.883 µM

— US20200123142A1, “Substituted Cyclohexylamine Compounds” (EPIZYME, INC., priority 2018, published 2020)
